Here are results for 25 compounds from patent US10800792B2, “Inhibitors of Bruton's tyrosine kinase and method of their use” (JANSSEN PHARMACEUTICA NV, priority 2015, dated 2020).

The target in the test is unphosphorylated-BTK kinase domain (UP-BTK), GST-tagged human BTK (389-659aa) (Homo sapiens (Human), UniProt Q06187). The experiment in a line: BTK kinase Lanthascreen binding assay. The note with it: 60 minutes incubation, pIC50 = negative log of the IC50 in molar. In a few lines:
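Values are pIC50, i.e. negative log of IC50 in molar, derived from concentration–response fitting. Each compound competes with a fluorescently labelled tracer for the unphosphorylated kinase domain.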
A general note: TR-FRET usually uses a lanthanide donor and a delayed reading to cut background.

The mark [1] stands for this setting: Lanthascreen tracer competition.
The mark [2] stands for this setting: unphosphorylated-BTK kinase domain, 50 nM Tracer 236.

Sequence of unphosphorylated-BTK kinase domain (UP-BTK), GST-tagged human BTK (389-659aa) (Q06187 389-659): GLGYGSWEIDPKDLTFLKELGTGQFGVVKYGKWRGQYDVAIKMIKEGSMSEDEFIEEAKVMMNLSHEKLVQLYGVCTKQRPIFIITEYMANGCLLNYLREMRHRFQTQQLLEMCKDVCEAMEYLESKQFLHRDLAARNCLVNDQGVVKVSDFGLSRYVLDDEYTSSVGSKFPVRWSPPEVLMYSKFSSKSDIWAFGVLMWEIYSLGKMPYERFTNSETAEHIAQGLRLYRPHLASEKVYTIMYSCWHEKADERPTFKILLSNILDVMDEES

As for `Cc1cc(Oc2ccccc2)ccc1N1C(=O)Nc2c(C(=O)NC3CCCN(C(=O)/C(C#N)=C/C(C)(C)C)C3)sc3nccc1c23` (stereo not shown) [Example 897, (E)-N-(1-(2-Cyano-4,4-dimethylpent-2-enoyl)piperidin-3-yl)-5-(2-methyl-4-phenoxyphenyl)-4-oxo-4,5-dihydro-3H-1-thia-3,5,8-triazaacenaphthylene-2-carboxamide], the “BTK_I_binding pIC50” value under setting [1] is given as 6.8. As for `Cc1cc(Oc2ccccc2)ccc1N1C(=O)Nc2c(C(=O)NC3CCCN(C)C3)sc3nccc1c23` (stereo not shown) [Example 898, 5-(2-Methyl-4-phenoxyphenyl)-N-(1-methylpiperidin-3-yl)-4-oxo-4,5-dihydro-3H-1-thia-3,5,8-triazaacenaphthylene-2-carboxamide], the “BTK_I_binding pIC50” value under setting [1] was determined as 6.8. For `Cc1cc(Oc2ccccc2)ccc1N1C(=O)Nc2c(C(=O)N[C@H]3CCCN(C(=O)/C(C#N)=C/C4CC4)C3)sc3nccc1c23` [Example 899, (S,E)-N-(1-(2-Cyano-3-cyclopropylacryloyl)piperidin-3-yl)-5-(2-methyl-4-phenoxyphenyl)-4-oxo-4,5-dihydro-3H-1-thia-3,5,8-triazaacenaphthylene-2-carboxamide], under setting [1], the “BTK_I_binding pIC50” value was determined as 6.8. Take `Cc1cc(Oc2ccccc2)ccc1N1C(=O)Nc2c(C(=O)N[C@@H]3CCCN(C(=O)/C=C/CN4CCCCC4)C3)sc3nccc1c23` [Example 900, (R,E)-5-(2-Methyl-4-phenoxyphenyl)-4-oxo-N-(1-(4-(piperidin-1-yl)but-2-enoyl)piperidin-3-yl)-4,5-dihydro-3H-1-thia-3,5,8-triazaacenaphthylene-2-carboxamide]: the “BTK_I_binding pIC50” value under setting [1] amounted to 6.8. `Cc1c(Oc2ccccc2)cccc1N1C(=O)Nc2c(C(=O)N[C@@H]3CCCN(C(=O)/C(C#N)=C/C4CC4)C3)sc3nccc1c23` [Example 901, (R,E)-N-(1-(2-Cyano-3-cyclopropylacryloyl)piperidin-3-yl)-5-(2-methyl-3-phenoxyphenyl)-4-oxo-4,5-dihydro-3H-1-thia-3,5,8-triazaacenaphthylene-2-carboxamide]: the “BTK_I_binding pIC50” value under setting [1] was found to be 6.8.

As to `N#C/C(=C\C1CC1)C(=O)N1CCC[C@H](NC(=O)c2sc3nccc4c3c2NC(=O)N4c2ccc(C(=O)Nc3cc(C(F)(F)F)ccn3)cc2F)C1` [Example 902, (S,E)-N-(1-(2-Cyano-3-cyclopropylacryloyl)piperidin-3-yl)-5-(2-fluoro-4-((4-(trifluoromethyl)pyridin-2-yl)carbamoyl)phenyl)-4-oxo-4,5-dihydro-3H-1-thia-3,5,8-triazaacenaphthylene-2-carboxamide], the “BTK_I_binding pIC50” value under setting [2] worked out at 6.8.

Regarding `CCC(=O)N1CCCC(NC(=O)c2sc3nccc4c3c2NC(=O)N4c2ccc(Oc3ccccc3)cc2C)C1` (stereo not shown) [Example 903, 5-(2-Methyl-4-phenoxyphenyl)-4-oxo-N-(1-propionylpiperidin-3-yl)-4,5-dihydro-3H-1-thia-3,5,8-triazaacenaphthylene-2-carboxamide], the “BTK_I_binding pIC50” value under setting [2] is recorded as 6.8. Still for that read-out and setting: next, `Cc1cc(Oc2ccccc2)ccc1N1C(=O)Nc2c(C(=O)N[C@H]3CCCN(C(=O)/C(C#N)=C/C(C)(C)C)C3)sc3nccc1c23` [Example 904, (S,E)-N-(1-(2-Cyano-4,4-dimethylpent-2-enoyl)piperidin-3-yl)-5-(2-methyl-4-phenoxyphenyl)-4-oxo-4,5-dihydro-3H-1-thia-3,5,8-triazaacenaphthylene-2-carboxamide]: 6.7; `Cc1cc(Oc2ccccc2)ccc1N1C(=O)Nc2c(C(=O)N[C@H]3CCN(C(=O)/C(C#N)=C/C4CC4)C3)sc3nccc1c23` [Example 905, (S,E)-N-(1-(2-Cyano-3-cyclopropylacryloyl)pyrrolidin-3-yl)-5-(2-methyl-4-phenoxyphenyl)-4-oxo-4,5-dihydro-3H-1-thia-3,5,8-triazaacenaphthylene-2-carboxamide]: 6.7; `COc1ccccc1Oc1ccc(N2C(=O)Nc3c(C(=O)NC4CCCN(C)C4)sc4nccc2c34)c(C)c1` (stereo not shown) [Example 907, 5-(4-(2-Methoxyphenoxy)-2-methylphenyl)-N-(1-methylpiperidin-3-yl)-4-oxo-4,5-dihydro-3H-1-thia-3,5,8-triazaacenaphthylene-2-carboxamide]: 6.7. Turning to `Cc1cc(Oc2ccccc2)ccc1N1C(=O)Nc2c(C(=O)N[C@@H]3CCCN(C(=O)CN4CCC4)C3)sc3nccc1c23` [Example 908, (R)—N-(1-(2-(Azetidin-1-yl)acetyl)piperidin-3-yl)-5-(2-methyl-4-phenoxyphenyl)-4-oxo-4,5-dihydro-3H-1-thia-3,5,8-triazaacenaphthylene-2-carboxamide], the “BTK_I_binding pIC50” value under setting [2] worked out at 6.7. `O=C(NC1CCOCC1)c1sc2nccc3c2c1NC(=O)N3c1ccc(Oc2ccccc2)cc1` [Example 909, 4-Oxo-5-(4-phenoxyphenyl)-N-(tetrahydro-2H-pyran-4-yl)-4,5-dihydro-3H-1-thia-3,5,8-triazaacenaphthylene-2-carboxamide]: the “BTK_I_binding pIC50” value under setting [2] is listed as 6.7.

In the case of `CN1CC[C@@H](NC(=O)c2sc3nccc4c3c2NC(=O)N4c2ccc(Oc3ccccc3)cc2)C1` [Example 910, (R)—N-(1-Methylpyrrolidin-3-yl)-4-oxo-5-(4-phenoxyphenyl)-4,5-dihydro-3H-1-thia-3,5,8-triazaacenaphthylene-2-carboxamide], under setting [2], the “BTK_I_binding pIC50” value came to 6.7. For the compound `O=C(N[C@@H]1CCNC1)c1sc2nccc3c2c1NC(=O)N3c1ccc(Oc2ccccc2)cc1` [Example 911, (R)-4-Oxo-5-(4-phenoxyphenyl)-N-(pyrrolidin-3-yl)-4,5-dihydro-3H-1-thia-3,5,8-triazaacenaphthylene-2-carboxamide], the “BTK_I_binding pIC50” value under setting [2] is recorded as 6.6. For `Cc1cc(Oc2ccccc2)ccc1N1C(=O)Nc2c(C(=O)N[C@H]3CCCNC3)sc3nccc1c23` [Example 912, (S)-5-(2-Methyl-4-phenoxyphenyl)-4-oxo-N-(piperidin-3-yl)-4,5-dihydro-3H-1-thia-3,5,8-triazaacenaphthylene-2-carboxamide], the “BTK_I_binding pIC50” value under setting [2] worked out at 6.5. With `Cc1cc(OC(C)C)ccc1N1C(=O)Nc2c(C(=O)N[C@@H]3CCCN(C(=O)/C=C/CN(C)C)C3)sc3nccc1c23` [Example 913, (R,E)-N-(1-(4-(Dimethylamino)but-2-enoyl)piperidin-3-yl)-5-(4-isopropoxy-2-methylphenyl)-4-oxo-4,5-dihydro-3H-1-thia-3,5,8-triazaacenaphthylene-2-carboxamide], the “BTK_I_binding pIC50” value under setting [2] amounted to 6.5.

In the case of `O=C(N[C@@H]1CCN(C(=O)c2ccccc2)C1)c1sc2nccc3c2c1NC(=O)N3c1ccc(Oc2ccccc2)cc1` [Example 914, (R)—N-(1-Benzoylpyrrolidin-3-yl)-4-oxo-5-(4-phenoxyphenyl)-4,5-dihydro-3H-1-thia-3,5,8-triazaacenaphthylene-2-carboxamide], the “BTK_I_binding pIC50” value under setting [2] amounted to 6.5.

As to `O=C(N[C@@H]1CCCNC1)c1sc2nccc3c2c1NC(=O)N3c1ccc(Oc2ccccc2)cn1` [Example 915, (R)-4-Oxo-5-(5-phenoxypyridin-2-yl)-N-(piperidin-3-yl)-4,5-dihydro-3H-1-thia-3,5,8-triazaacenaphthylene-2-carboxamide], the “BTK_I_binding pIC50” value under setting [2] was 6.5.

For `Cc1cc(Oc2ccccc2)ccc1N1C(=O)Nc2c(C(=O)NC3CCN(C(=O)/C(C#N)=C/C4CC4)CC3)sc3nccc1c23` [Example 916, (E)-N-(1-(2-Cyano-3-cyclopropylacryloyl)piperidin-4-yl)-5-(2-methyl-4-phenoxyphenyl)-4-oxo-4,5-dihydro-3H-1-thia-3,5,8-triazaacenaphthylene-2-carboxamide], the “BTK_I_binding pIC50” value under setting [2] worked out at 6.4.

Take `COc1ccccc1Oc1ccc(N2C(=O)Nc3c(C(=O)NC4CCNCC4)sc4nccc2c34)c(C)c1` [Example 917, 5-(4-(2-Methoxyphenoxy)-2-methylphenyl)-4-oxo-N-(piperidin-4-yl)-4,5-dihydro-3H-1-thia-3,5,8-triazaacenaphthylene-2-carboxamide]: under setting [2], the “BTK_I_binding pIC50” value is on record as 6.4.

With `COc1ccccc1Oc1ccc(N2C(=O)Nc3c(C(=O)NC4CCN(C)CC4)sc4nccc2c34)c(C)c1` [Example 918, 5-(4-(2-Methoxyphenoxy)-2-methylphenyl)-N-(1-methylpiperidin-4-yl)-4-oxo-4,5-dihydro-3H-1-thia-3,5,8-triazaacenaphthylene-2-carboxamide], under setting [2], the “BTK_I_binding pIC50” value was determined as 6.4. The same measure, in the same setting: to `Cc1cc(OC2CCCC2)ccc1N1C(=O)Nc2c(C(=O)N[C@@H]3CCCNC3)sc3nccc1c23` [Example 919, (R)-5-(4-(cyclopentyloxy)-2-methylphenyl)-4-oxo-N-(piperidin-3-yl)-4,5-dihydro-3H-1-thia-3,5,8-triazaacenaphthylene-2-carboxamide] belongs 6.4.

For `CN1CCC(NC(=O)c2sc3nccc4c3c2NC(=O)N4c2ccc(Oc3ccccc3)cc2)CC1` [Example 920, N-(1-Methylpiperidin-4-yl)-4-oxo-5-(4-phenoxyphenyl)-4,5-dihydro-3H-1-thia-3,5,8-triazaacenaphthylene-2-carboxamide], the “BTK_I_binding pIC50” value under setting [2] stood at 6.4. Still for that read-out and setting: to `Cc1cc(Oc2ccccc2)ccc1N1C(=O)Nc2c(C(=O)NC3CCN(C(=O)/C(C#N)=C/C(C)(C)C)CC3)sc3nccc1c23` [Example 921, (E)-N-(1-(2-Cyano-4,4-dimethylpent-2-enoyl)piperidin-4-yl)-5-(2-methyl-4-phenoxyphenyl)-4-oxo-4,5-dihydro-3H-1-thia-3,5,8-triazaacenaphthylene-2-carboxamide] belongs 6.3. For `O=C(N[C@@H]1CCCNC1)c1sc2nccc3c2c1NC(=O)N3c1ccc(Oc2ccccc2)nc1` [Example 922, (R)-4-Oxo-5-(6-phenoxypyridin-3-yl)-N-(piperidin-3-yl)-4,5-dihydro-3H-1-thia-3,5,8-triazaacenaphthylene-2-carboxamide], the “BTK_I_binding pIC50” value under setting [2] stood at 6.3.
